Assay [1] relates to THP1-Dual cells, NF-κB pathway (SEAP). Description: THP-1 Dual cell SEAP assay (L18-MDP stimulated). Format: cell-based. The settings on record: Homo sapiens, 10 ng/mL L18-MDP, 20-24 h, SEAP readout, read-out: IFNγ THP1 IC50. In a few lines:
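About 25,000 THP1-Dual cells per well were preincubated 30 min with serially diluted compound, then stimulated overnight (20-24 h, 37 °C) with 10 ng/mL L18-MDP (final). NF-κB-driven SEAP in supernatant was read with QUANTI-Blue at OD 620-655 nm after 2 h; % inhibition versus DMSO/L18-MDP wells was fitted by non-linear regression to give IC50.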

The target of a further assay is T1, RIPK2 (KD)/XIAP (BIR2) (Homo sapiens, UniProt O43353).
T1 construct: made in house; host or cells: baculovirus-infected Sf9 cells
Put plainly: RIPK2-XIAP binding competition PPI assay (TR-FRET). The settings on record: for Emax: 50 nM of GSK583 = -100% activity, read-out: PPI Amax; for IC50: GST-RIPK2 / His-XIAP (BIR2)-avi, 120 min at 23° C. In a few lines:
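TR-FRET competition between GST-RIPK2 (aa 1-310, 1 nM) and His-XIAP BIR2-avi (aa 152-231, 25 nM), both Sf9-expressed, detected with anti-His-XL665 and anti-GST-Tb in Tris pH 7.5 buffer with MgCl2, DTT and vanadate. Incubation was 120 min at 23 °C; the 665/520 nm ratio was normalized to no inhibitor (0%) and 50 nM GSK583 (−100%).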
Background: In TR-FRET formats the signal depends on donor and acceptor labels being close together.

T1 sequence (O43353 1-310): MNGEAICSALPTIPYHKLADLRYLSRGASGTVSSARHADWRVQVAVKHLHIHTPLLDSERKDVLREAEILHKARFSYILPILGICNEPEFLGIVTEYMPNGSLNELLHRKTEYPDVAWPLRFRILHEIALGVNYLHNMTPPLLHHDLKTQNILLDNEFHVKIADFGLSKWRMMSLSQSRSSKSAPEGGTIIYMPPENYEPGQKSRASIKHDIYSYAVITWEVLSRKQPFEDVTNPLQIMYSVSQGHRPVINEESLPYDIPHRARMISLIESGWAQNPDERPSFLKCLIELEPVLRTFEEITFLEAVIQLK

A word on the IC50: it is the concentration that gives 50% inhibition. With `COc1ccccc1CNC(=O)c1cc(-c2cnc3cc(OC)c(S(=O)(=O)C(C)(C)C)cn23)nn1C` [Example 73, 3-(6-(tert-butylsulfonyl)-7-methoxyimidazo[1,2-a]pyridin-3-yl)-N-(2-methoxybenzyl)-1-methyl-1H-pyrazole-5-carboxamide], the IC50 in assay [1] was in the range of 0.5 to 2.5 µM. On RIPK2 (KD)/XIAP (BIR2), the Emax is no less than 80% and the IC50 lay within 0.01 to 0.1 µM.
For `COc1cc2ncc(-c3cc(C(=O)NCc4ccccc4CO)n(C)n3)n2cc1S(=O)(=O)C(C)(C)C` [Example 74, 3-(6-(tert-butylsulfonyl)-7-methoxyimidazo[1,2-a]pyridin-3-yl)-N-(2-(hydroxymethyl)benzyl)-1-methyl-1H-pyrazole-5-carboxamide], in that order: 0.5 to 2.5 µM, no less than 80% and 0.01 to 0.1 µM.
For `COc1ccccc1[C@@H](C)NC(=O)c1cc(-c2cnc3cc(OCCO)c(S(=O)(=O)C(C)(C)C)cn23)nn1C` [Example 75, (R)-3-(6-(tert-butylsulfonyl)-7-(2-hydroxyethoxy)imidazo[1,2-a]pyridin-3-yl)-N-(1-(2-methoxyphenyl)ethyl)-1-methyl-1H-pyrazole-5-carboxamide], in that order: 0.5 to 2.5 µM, no less than 80% and 0.01 to 0.1 µM.
As for `COc1cc2ncc(-c3cc(C(=O)NCc4nccn4C)n(C)n3)n2cc1S(=O)(=O)C(C)(C)C` [Example 76, 3-(6-(tert-butylsulfonyl)-7-methoxyimidazo[1,2-a]pyridin-3-yl)-1-methyl-N-((1-methyl-1H-imidazol-2-yl)methyl)-1H-pyrazole-5-carboxamide], the IC50 in assay [1] was greater than 2.5 µM. Further, at RIPK2 (KD)/XIAP (BIR2), the Emax is no more than 30% and the 50% inhibitory concentration (IC50) is greater than 1 µM.
For `COc1cc2ncc(-c3cc(C(=O)NCc4noc(C)n4)n(C)n3)n2cc1S(=O)(=O)C(C)(C)C` [Example 77, 3-(6-(tert-butylsulfonyl)-7-methoxyimidazo[1,2-a]pyridin-3-yl)-1-methyl-N-((5-methyl-1,2,4-oxadiazol-3-yl)methyl)-1H-pyrazole-5-carboxamide], in that order: greater than 2.5 µM, no less than 80% and 0.1 to 1 µM.
For `COc1cc2ncc(-c3cc(C(=O)NCc4nc(C)no4)n(C)n3)n2cc1S(=O)(=O)C(C)(C)C` [Example 78, 3-(6-(tert-butylsulfonyl)-7-methoxyimidazo[1,2-a]pyridin-3-yl)-1-methyl-N-((3-methyl-1,2,4-oxadiazol-5-yl)methyl)-1H-pyrazole-5-carboxamide], in that order: greater than 2.5 µM, 55 to 80% and greater than 1 µM.
Turning to `COc1cc2ncc(-c3cc(C(=O)NCc4nccc(C)n4)n(C)n3)n2cc1S(=O)(=O)C(C)(C)C` [Example 79, 3-(6-(tert-butylsulfonyl)-7-methoxyimidazo[1,2-a]pyridin-3-yl)-1-methyl-N-((4-methylpyrimidin-2-yl)methyl)-1H-pyrazole-5-carboxamide], in assay [1], the concentration for half-maximal inhibition (IC50) was greater than 2.5 µM. Moreover, on RIPK2 (KD)/XIAP (BIR2), the Emax was no less than 80% and the IC50 is 0.1 to 1 µM.
Regarding `CCn1nc(-c2cnc3cc(OC)c(S(=O)(=O)C(C)(C)C)cn23)cc1C(=O)NCc1ncccn1` [Example 80, 3-(6-(tert-butylsulfonyl)-7-methoxyimidazo[1,2-a]pyridin-3-yl)-1-ethyl-N-(pyrimidin-2-ylmethyl)-1H-pyrazole-5-carboxamide], the IC50 in assay [1] lay within 0.1 to 0.5 µM; on RIPK2 (KD)/XIAP (BIR2) it was 0.01 to 0.1 µM. For the same compound, the Emax on RIPK2 (KD)/XIAP (BIR2) was no less than 80%.
For `COc1cc2ncc(-c3cc(C(=O)NCc4ncn(C)n4)n(C)n3)n2cc1S(=O)(=O)C(C)(C)C` [Example 81, 3-(6-(tert-butylsulfonyl)-7-methoxyimidazo[1,2-a]pyridin-3-yl)-1-methyl-N-((1-methyl-1H-1,2,4-triazol-3-yl)methyl)-1H-pyrazole-5-carboxamide], in that order: greater than 2.5 µM, 0.1 to 1 µM and no less than 80%.
For `COc1cc2ncc(-c3cc(C(=O)NCc4ncccc4C#N)n(C)n3)n2cc1S(=O)(=O)C(C)(C)C` [Example 82, 3-(6-(tert-butylsulfonyl)-7-methoxyimidazo[1,2-a]pyridin-3-yl)-N-((3-cyanopyridin-2-yl)methyl)-1-methyl-1H-pyrazole-5-carboxamide], in that order: 0.5 to 2.5 µM, 0.01 to 0.1 µM and no less than 80%.
As to `COc1cc2ncc(-c3cc(C(=O)NCc4ccccc4C#N)n(C)n3)n2cc1S(=O)(=O)C(C)(C)C` [Example 83, 3-(6-(tert-butylsulfonyl)-7-methoxyimidazo[1,2-a]pyridin-3-yl)-N-(2-cyanobenzyl)-1-methyl-1H-pyrazole-5-carboxamide], the results for the IC50 (in assay [1]; at RIPK2 (KD)/XIAP (BIR2)) were greater than 2.5 µM and 0.1 to 1 µM, respectively. Also, on RIPK2 (KD)/XIAP (BIR2), the Emax is no less than 80%.
For `COc1cc2ncc(-c3cc(C(=O)NCc4nccs4)n(C)n3)n2cc1S(=O)(=O)C(C)(C)C` [Example 84, 3-(6-(tert-butylsulfonyl)-7-methoxyimidazo[1,2-a]pyridin-3-yl)-1-methyl-N-(thiazol-2-ylmethyl)-1H-pyrazole-5-carboxamide], in that order: 0.5 to 2.5 µM, 0.01 to 0.1 µM and no less than 80%.
For `COc1cc2ncc(-c3cc(C(=O)NCc4cscn4)n(C)n3)n2cc1S(=O)(=O)C(C)(C)C` [Example 85, 3-(6-(tert-butylsulfonyl)-7-methoxyimidazo[1,2-a]pyridin-3-yl)-1-methyl-N-(thiazol-4-ylmethyl)-1H-pyrazole-5-carboxamide], in that order: 0.5 to 2.5 µM, 0.01 to 0.1 µM and no less than 80%.
For `COc1cc2ncc(-c3cc(C(=O)NCc4ccsn4)n(C)n3)n2cc1S(=O)(=O)C(C)(C)C` [Example 86, 3-(6-(tert-butylsulfonyl)-7-methoxyimidazo[1,2-a]pyridin-3-yl)-N-(isothiazol-3-ylmethyl)-1-methyl-1H-pyrazole-5-carboxamide], in that order: 0.1 to 0.5 µM, 0.01 to 0.1 µM and no less than 80%.
As to `COc1cc2ncc(-c3cc(C(=O)NCc4cc(C)sn4)n(C)n3)n2cc1S(=O)(=O)C(C)(C)C` [Example 87, 3-(6-(tert-butylsulfonyl)-7-methoxyimidazo[1,2-a]pyridin-3-yl)-1-methyl-N-((5-methylisothiazol-3-yl)methyl)-1H-pyrazole-5-carboxamide], the IC50 was 0.5 to 2.5 µM in assay [1] and 0.01 to 0.1 µM on RIPK2 (KD)/XIAP (BIR2). The Emax on RIPK2 (KD)/XIAP (BIR2) is no less than 80%.
For `COc1cc2ncc(-c3cc(C(=O)NCc4nc(C)cs4)n(C)n3)n2cc1S(=O)(=O)C(C)(C)C` [Example 88, 3-(6-(tert-butylsulfonyl)-7-methoxyimidazo[1,2-a]pyridin-3-yl)-1-methyl-N-((4-methylthiazol-2-yl)methyl)-1H-pyrazole-5-carboxamide], in that order: 0.5 to 2.5 µM, 0.1 to 1 µM and no less than 80%.
With `COc1cc2ncc(-c3cc(C(=O)NCc4ncc(C)s4)n(C)n3)n2cc1S(=O)(=O)C(C)(C)C` [Example 89, 3-(6-(tert-butylsulfonyl)-7-methoxyimidazo[1,2-a]pyridin-3-yl)-1-methyl-N-((5-methylthiazol-2-yl)methyl)-1H-pyrazole-5-carboxamide], the half-inhibitory concentration (IC50) in assay [1] lay in the range of 0.1 to 0.5 µM. For the same compound, on RIPK2 (KD)/XIAP (BIR2), the Emax is no less than 80% and the IC50 was 0.01 to 0.1 µM.
For `COc1cc2ncc(-c3cc(C(=O)NCc4ncsn4)n(C)n3)n2cc1S(=O)(=O)C(C)(C)C` [Example 90, N-((1,2,4-thiadiazol-3-yl)methyl)-3-(6-(tert-butylsulfonyl)-7-methoxyimidazo[1,2-a]pyridin-3-yl)-1-methyl-1H-pyrazole-5-carboxamide], in that order: 0.5 to 2.5 µM, 55 to 80% and 0.01 to 0.1 µM.
With `COc1cc2ncc(-c3cc(C(=O)NCc4nsc(C)n4)n(C)n3)n2cc1S(=O)(=O)C(C)(C)C` [Example 91, 3-(6-(tert-butylsulfonyl)-7-methoxyimidazo[1,2-a]pyridin-3-yl)-1-methyl-N-((5-methyl-1,2,4-thiadiazol-3-yl)methyl)-1H-pyrazole-5-carboxamide], the IC50 in assay [1] was greater than 2.5 µM. In addition, at RIPK2 (KD)/XIAP (BIR2), the Emax was 55 to 80% and the half-inhibitory concentration (IC50) was 0.1 to 1 µM.
In the case of `COc1cc2ncc(-c3cc(C(=O)NCc4nc(C)c(C)s4)n(C)n3)n2cc1S(=O)(=O)C(C)(C)C` [Example 92, 3-(6-(tert-butylsulfonyl)-7-methoxyimidazo[1,2-a]pyridin-3-yl)-N-((4,5-dimethylthiazol-2-yl)methyl)-1-methyl-1H-pyrazole-5-carboxamide], the IC50 was greater than 2.5 µM in assay [1] and 0.1 to 1 µM at RIPK2 (KD)/XIAP (BIR2). For the same compound, the Emax at RIPK2 (KD)/XIAP (BIR2) is no less than 80%.
For `COc1cc2ncc(-c3cc(C(=O)N[C@H](C)c4nccs4)n(C)n3)n2cc1S(=O)(=O)C(C)(C)C` [Example 93, (R)-3-(6-(tert-butylsulfonyl)-7-methoxyimidazo[1,2-a]pyridin-3-yl)-1-methyl-N-(1-(thiazol-2-yl)ethyl)-1H-pyrazole-5-carboxamide], in that order: 0.1 to 0.5 µM, 0.01 to 0.1 µM and no less than 80%.
